Experimental data published in patent US20210041447A1, “AZACARBOLINE COMPOUNDS FOR THE DETECTION OF TAU AGGREGATES” (AC IMMUNE SA, priority 2018, published 2021).
Like-named read-outs stand apart in the source and are kept apart here.

Assays:
MAO A [1] = molecular target: T1, MAO A (Mus musculus, UniProt Q64133); test: Binding affinity to MAO A in mouse brain homogenate, [18F]fluoroethyl harmine competition; details: for IC50: 18F-FEH competition; as to Low affinity to MAO A (mouse homogenate): key: −: poor; ∘: moderate; +: good; ++: very good; +++: excellent
T1 construct: from tissue; host or cells: mouse brain homogenate
T1 sequence (Q64133 1-526): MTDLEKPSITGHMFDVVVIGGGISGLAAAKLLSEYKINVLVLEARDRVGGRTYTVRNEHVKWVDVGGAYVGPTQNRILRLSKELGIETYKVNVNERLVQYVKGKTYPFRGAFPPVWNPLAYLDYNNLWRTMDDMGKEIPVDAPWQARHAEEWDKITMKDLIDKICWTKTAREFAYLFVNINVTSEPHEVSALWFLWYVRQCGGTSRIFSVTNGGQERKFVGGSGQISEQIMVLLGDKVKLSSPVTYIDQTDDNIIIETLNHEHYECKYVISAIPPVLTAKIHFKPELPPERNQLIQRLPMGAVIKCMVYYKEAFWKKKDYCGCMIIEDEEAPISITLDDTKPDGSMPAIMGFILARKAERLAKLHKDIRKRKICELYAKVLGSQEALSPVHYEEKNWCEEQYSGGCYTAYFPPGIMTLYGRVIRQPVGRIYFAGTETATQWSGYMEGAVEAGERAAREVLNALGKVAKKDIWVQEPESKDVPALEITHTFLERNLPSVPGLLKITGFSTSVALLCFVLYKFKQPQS
Procedure: (§1) 20 μg of brain homogenate (without AD pathology) was incubated with a dilution series of each test compound (1000 to 0.06 nM) in the presence of 800 Bq of 18F-labeled MAO-A binder ([^18F]fluoroethyl harmine, FEH). The samples were shaken at 110 rpm for 45 min at 37° C. Samples were then filtered through GF/B 96-well filter plates and washed twice with 300 μL assay buffer (PBS containing 0.1% BSA and 2% DMSO). Thereafter, filter plates were sealed and a Fuji Film Imaging Plate (BAS-SR2025) was placed on top. The imaging plate was analyzed after overnight exposition using a Fuji Film BAS-5000. Non-specific signal was determined with samples containing ^18F-labeled FEH in the presence of assay buffer without brain substrate and competitor. Specific binding was calculated by subtracting the non-specific signal from the measured samples signal. The unblocked ^18F-labeled FEH signal was defined as total binding. IC50 values were calculated by Prism V6 (GraphPad) setting total binding to 100%.

Tau = Tau (Homo sapiens, UniProt P10636); test: Tau binding in AD brain homogenate, competition with 18F-labeled Tau binder; design: High affinity to Tau: key: −: poor; ∘: moderate; +: good; ++: very good; +++: excellent; details: for High affinity to Tau: AD brain homogenate, non-radioactive fluorine-19 derivatives; for IC50: human AD brain homogenate, fluorine-19 derivatives
Sequence of Tau (P10636 623-708 limits assumed): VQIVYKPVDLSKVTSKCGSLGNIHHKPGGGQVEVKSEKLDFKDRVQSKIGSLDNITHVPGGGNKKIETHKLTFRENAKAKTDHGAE
Procedure: (§2) 20 μg of human Alzheimer disease brain homogenate was incubated with a dilution series of each test compound (1000 to 0.06 nM) in the presence of 800 Bq of ^18F-labeled Tau binder. The samples were shaken at 110 rpm for 45 min at 37° C. Samples were then filtered through GF/B 96 well filter plates and washed twice with 300 μL assay buffer (PBS containing 0.1% BSA and 2% DMSO). Thereafter, filter plates were sealed and a Fuji Film Imaging Plate (BAS-SR2025) was placed on top. The imaging plate was analyzed after overnight exposition using a Fuji Film BAS-5000. Non-specific signal was determined with samples containing ^18F-labeled Tau-reference binder in the presence of assay buffer without brain substrate and competitor. Specific binding was calculated by subtracting the non-specific signal from the measured samples signal. The unblocked ^18F-labeled Tau-binder signal was defined as total binding. IC50 values were calculated by Prism V6 (GraphPad) setting total binding to 100%.

amyloid-beta = amyloid-beta (Homo sapiens, UniProt P05067); test: Binding affinity to amyloid-beta in AD brain homogenate, competition with 18F-labeled beta-amyloid binder; design: Low affinity to amyloid-beta: key: −: poor; ∘: moderate; +: good; ++: very good; +++: excellent
Sequence of amyloid-beta (P05067 672-711 limits assumed): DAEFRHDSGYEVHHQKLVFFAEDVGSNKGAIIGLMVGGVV
Procedure: as §2, with “beta-amyloid” for “Tau”, “96-well” for “96 well”, “beta-amyloid” for “Tau-reference”, “beta-amyloid binder” for “Tau-binder”

MAO B = molecular target: T2, MAO B (Homo sapiens, UniProt P27338); test: Binding affinity to MAO B in HC brain homogenate, [18F]fluoro deprenyl competition; design: Low affinity to MAO B: key: −: poor; ∘: moderate; +: good; ++: very good; +++: excellent
T2 construct: from tissue; host or cells: human brain homogenate without AD pathology
T2 sequence (P27338 1-520): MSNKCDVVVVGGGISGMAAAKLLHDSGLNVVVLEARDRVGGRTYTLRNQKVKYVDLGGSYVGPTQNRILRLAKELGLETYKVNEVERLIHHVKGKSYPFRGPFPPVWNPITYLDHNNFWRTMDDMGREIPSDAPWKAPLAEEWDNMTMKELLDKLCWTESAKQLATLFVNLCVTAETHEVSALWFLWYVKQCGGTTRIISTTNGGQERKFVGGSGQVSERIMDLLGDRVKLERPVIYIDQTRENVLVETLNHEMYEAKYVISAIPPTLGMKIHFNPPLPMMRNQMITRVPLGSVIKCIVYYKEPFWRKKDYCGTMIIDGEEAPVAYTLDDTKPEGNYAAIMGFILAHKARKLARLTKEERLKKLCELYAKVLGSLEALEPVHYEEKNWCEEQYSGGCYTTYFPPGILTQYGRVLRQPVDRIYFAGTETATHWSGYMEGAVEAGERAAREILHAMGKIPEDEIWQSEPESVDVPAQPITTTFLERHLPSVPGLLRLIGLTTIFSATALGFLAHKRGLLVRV
Procedure: 20 μg of human brain homogenate (without AD pathology) was incubated with a dilution series of each test compound (1000 to 0.06 nM) in the presence of 800 Bq of ^18F-labeled MAO-B binder ([^18F]fluoro deprenyl). The samples were shaken at 110 rpm for 45 min at 37° C. Samples were then filtered through GF/B 96-well filter plates and washed twice with 300 μL assay buffer (PBS containing 0.1% BSA and 2% DMSO). Thereafter, filter plates were sealed and a Fuji Film Imaging Plate (BAS-SR2025) was placed on top. The imaging plate was analyzed after overnight exposition using a Fuji Film BAS-5000. Non-specific signal was determined with samples containing ^18F-labeled fluoro deprenyl in the presence of assay buffer without brain substrate and competitor. Specific binding was calculated by subtracting the non-specific signal from the measured samples signal. The unblocked ^18F-labeled fluoro deprenyl signal was defined as total binding. IC50 values were calculated by Prism V6 (GraphPad) setting total binding to 100%.

MAO A [2] = molecular target: T3, MAO A (Homo sapiens, UniProt P21397); test: Binding affinity to MAO A in human HC brain homogenate, [18F]fluoroethyl harmine competition; details: human healthy control brain homogenate; for IC50: 18F-FEH competition; as to Low affinity to MAO A (HC homogenate): key: −: poor; ∘: moderate; +: good; ++: very good; +++: excellent
T3 construct: from tissue; host or cells: human healthy control brain homogenate
T3 sequence (P21397 1-527): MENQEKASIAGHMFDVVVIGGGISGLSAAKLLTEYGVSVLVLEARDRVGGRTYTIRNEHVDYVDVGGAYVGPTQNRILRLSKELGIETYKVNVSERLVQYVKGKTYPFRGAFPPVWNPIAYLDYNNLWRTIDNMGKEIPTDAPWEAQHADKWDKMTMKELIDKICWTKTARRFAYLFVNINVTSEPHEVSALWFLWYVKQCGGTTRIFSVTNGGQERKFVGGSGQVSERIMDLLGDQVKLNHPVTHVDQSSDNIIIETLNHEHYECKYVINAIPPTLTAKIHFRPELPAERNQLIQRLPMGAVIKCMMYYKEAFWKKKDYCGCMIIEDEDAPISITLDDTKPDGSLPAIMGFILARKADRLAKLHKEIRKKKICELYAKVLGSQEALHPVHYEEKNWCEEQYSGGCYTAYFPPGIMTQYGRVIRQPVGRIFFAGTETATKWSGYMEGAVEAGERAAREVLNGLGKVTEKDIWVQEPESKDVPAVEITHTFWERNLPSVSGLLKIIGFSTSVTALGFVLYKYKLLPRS
Procedure: as §1

[3] = human AD brain homogenate; read-out: IC50 in AD brain homogenate (amyloid-beta)
[4] = human HC brain homogenate; 18F-fluoro deprenyl competition; read-out: IC50 in HC brain homogenate (MAO B)

SMILES: N#Cc1cc(-c2ccc3c(n2)[nH]c2ccncc23)ccc1F [Example F-9a]
- Low affinity to MAO A (mouse homogenate) (MAO A [1]): ++
- IC50 (MAO A [1]): 152 nM
- High affinity to Tau (Tau): +++
- IC50 (Tau): 8.7 nM

SMILES: Fc1ccc(-c2ccc3c(n2)[nH]c2ccncc23)c(F)n1 [Example F-7]
- Low affinity to amyloid-beta (amyloid-beta; AD brain homogenate): +++
- IC50 (amyloid-beta; [3]): > 1000 nM
- Low affinity to MAO A (mouse homogenate) (MAO A [1]): +++
- IC50 (MAO A [1]): 701 nM
- High affinity to Tau (Tau): ++
- IC50 (Tau): 10 nM
- Low affinity to MAO B (MAO B; HC brain homogenate): ++
- IC50 (MAO B; [4]): 387 nM
- Low affinity to MAO A (HC homogenate) (MAO A [2]): +++
- IC50 (MAO A [2]): 739 nM

SMILES: Fc1cnc(F)c(-c2ccc3c(n2)[nH]c2ccncc23)c1 [Example F-8]
- Low affinity to amyloid-beta (amyloid-beta; AD brain homogenate): +++
- IC50 (amyloid-beta; [3]): > 1000 nM
- Low affinity to MAO A (mouse homogenate) (MAO A [1]): +++
- IC50 (MAO A [1]): > 1000 nM
- High affinity to Tau (Tau): ++
- IC50 (Tau): 9 nM
- Low affinity to MAO B (MAO B; HC brain homogenate): +++
- IC50 (MAO B; [4]): > 1000 nM
- Low affinity to MAO A (HC homogenate) (MAO A [2]): +++
- IC50 (MAO A [2]): > 1000 nM

SMILES: Fc1cc(-c2ccc3c(n2)[nH]c2ccncc23)cc(F)n1 [Example F-5]
- Low affinity to amyloid-beta (amyloid-beta; AD brain homogenate): +++
- IC50 (amyloid-beta; [3]): > 1000 nM
- Low affinity to MAO A (mouse homogenate) (MAO A [1]): +++
- IC50 (MAO A [1]): > 1000 nM
- High affinity to Tau (Tau): ++
- IC50 (Tau): 29 nM
- Low affinity to MAO B (MAO B; HC brain homogenate): +++
- IC50 (MAO B; [4]): > 1000 nM
- Low affinity to MAO A (HC homogenate) (MAO A [2]): +++
- IC50 (MAO A [2]): > 1000 nM

SMILES: Fc1nccc(-c2ccc3c(n2)[nH]c2ccncc23)c1Cl [Example F-4]
- Low affinity to amyloid-beta (amyloid-beta; AD brain homogenate): +++
- IC50 (amyloid-beta; [3]): > 1000 nM
- Low affinity to MAO A (mouse homogenate) (MAO A [1]): +++
- IC50 (MAO A [1]): > 1000 nM
- High affinity to Tau (Tau): ++
- IC50 (Tau): 26 nM
- Low affinity to MAO B (MAO B; HC brain homogenate): +++
- IC50 (MAO B; [4]): > 1000 nM
- Low affinity to MAO A (HC homogenate) (MAO A [2]): +++
- IC50 (MAO A [2]): > 1000 nM

SMILES: Nc1cc(-c2ccc3c(n2)[nH]c2ccncc23)ccc1F [Example F-10]
- Low affinity to amyloid-beta (amyloid-beta; AD brain homogenate): +++
- IC50 (amyloid-beta; read-out: IC50 in AD brain homogenate (amyloid-beta); human AD brain homogenate): 680 nM
- Low affinity to MAO A (mouse homogenate) (MAO A [1]): +
- IC50 (MAO A [1]): 25 nM
- High affinity to Tau (Tau): +++
- Low affinity to MAO B (MAO B; HC brain homogenate): +++
- IC50 (MAO B; read-out: IC50 in HC brain homogenate (MAO B); human HC brain homogenate; 18F-fluoro deprenyl competition): > 1000 nM
- Low affinity to MAO A (HC homogenate) (MAO A [2]): +
- IC50 (MAO A [2]): 24 nM

SMILES: N#Cc1ccc(-c2ccc3c(n2)[nH]c2ccncc23)cc1F [Example F-9]
- Low affinity to amyloid-beta (amyloid-beta; AD brain homogenate): +++
- IC50 (amyloid-beta; [3]): > 1000 nM
- Low affinity to MAO A (mouse homogenate) (MAO A [1]): ++
- IC50 (MAO A [1]): 181 nM
- High affinity to Tau (Tau): ++
- IC50 (Tau): 13 nM
- Low affinity to MAO B (MAO B; HC brain homogenate): +++
- IC50 (MAO B; [4]): > 1000 nM
- Low affinity to MAO A (HC homogenate) (MAO A [2]): ++
- IC50 (MAO A [2]): 333 nM

SMILES: Fc1cc(-c2ccc3c(n2)[nH]c2ccncc23)c(F)cn1 [Example F-6]
- Low affinity to amyloid-beta (amyloid-beta; AD brain homogenate): +++
- IC50 (amyloid-beta; [3]): > 1000 nM
- Low affinity to MAO A (mouse homogenate) (MAO A [1]): +++
- IC50 (MAO A [1]): > 1000 nM
- High affinity to Tau (Tau): ++
- IC50 (Tau): 17 nM
- Low affinity to MAO B (MAO B; HC brain homogenate): +++
- IC50 (MAO B; [4]): > 1000 nM
- Low affinity to MAO A (HC homogenate) (MAO A [2]): +++
- IC50 (MAO A [2]): > 1000 nM

SMILES: Fc1nccc(-c2ccc3c(n2)[nH]c2ccncc23)c1F [Example F-3]
- Low affinity to amyloid-beta (amyloid-beta; AD brain homogenate): +++
- IC50 (amyloid-beta; [3]): > 1000 nM
- Low affinity to MAO A (mouse homogenate) (MAO A [1]): +++
- IC50 (MAO A [1]): 830 nM
- High affinity to Tau (Tau): +++
- IC50 (Tau): 7 nM
- Low affinity to MAO B (MAO B; HC brain homogenate): +++
- IC50 (MAO B; [4]): 645 nM
- Low affinity to MAO A (HC homogenate) (MAO A [2]): +++
- IC50 (MAO A [2]): > 1000 nM
